Values after ≈ are worked out from the molar mass of the structure shown. Like-named read-outs stand apart in the source and are kept apart here.
System: M. tuberculosis resistant isolates
Format: cell-based, Mycobacterium tuberculosis
Details: solid medium 7H10 with 10% v/v OADC, 3–4 weeks

Structure (SMILES)	MIC99 (strain LP-0458690-RM1)	MIC99 (strain LP-0458690-RM2)	MIC99 (strain LP-0458690-RM3)	MIC99 (strain LP-0458690-RM4)	MIC99 (strain LP-0458690-RM5)	MIC99 (strain LP-0458690-RM6)	MIC99 (strain LP-0458686-RM1)	MIC99 (strain LP-0458686-RM2)	MIC99 (strain LP-0458686-RM3)
CC(C)CC1C(=O)N2NCCCC2C(=O)N2NCCCC2C(=O)N(C)C(Cc2ccccc2)C(=O)N2CCCC2C(=O)NC(Cc2ccccc2)C(=O)N1O (stereo not drawn) [Compound 1, cyclo[N-(Me)Phe-Pro-Phe-N-(OH)Leu-Piz-Piz]]	13 µM (≈ 9.87 µg/mL)	25 µM (≈ 19 µg/mL)	25 µM (≈ 19 µg/mL)	25 µM (≈ 19 µg/mL)	25 µM (≈ 19 µg/mL)	25 µM (≈ 19 µg/mL)	–	–	–
CC(C)CC1C(=O)N2NCCCC2C(=O)N2NCCCC2C(=O)N(C)C(Cc2ccccc2)C(=O)N2CCCC2C(=O)NC(C(C)C)C(=O)N1O (stereo not drawn) [Compound 3]	–	–	–	–	–	–	3.1 µM (≈ 2.2 µg/mL)	3.1 µM (≈ 2.2 µg/mL)	3.1 µM (≈ 2.2 µg/mL)

Reference: PMC6022709 (BMC Research Notes, 2018)
